Results: a melting point compilation (Tetko et al.; mined from patent text by program, amines drawn as free bases though some values may be those of a salt)

First: O=C(O)[C@@H]1C[C@H](OS(=O)(=O)C2CCCCC2)CN1C(=O)c1ccccc1
Second: O=C([C@@H]1CSCN1C(=O)c1ccncc1)N1CCSC1
The melting point of the first is higher: 154 to 172 °C for the first, 120 to 123 °C for the second.

`Clc1ccc(CN2CCN=C2Cc2ccccc2)c(Cl)c1` and `N#CC1=Nc2ccc(Cl)cc2Oc2ccccc21` cannot be ordered by melting point: 185 to 189 °C for the first, 185 to 188 °C for the second.

Compared with `COc1ccc(-c2nc(Sc3ncccn3)[nH]c2-c2ccc(OC)cc2)cc1`, `COc1ccc(N2CCN(c3ccc(N)nc3-c3ccc(C)cc3)CC2)cc1` is higher in melting point: 86 °C for the first, 193 to 200 °C for the second.

First: CCCCC1(C#N)C2CC3CC(C2)CC1C3 (stereo not given)
Second: COc1ccccc1C(C#N)(CC1CCCCO1)Cn1cncn1 (stereo not given)
The melting point of the first is lower: 48 to 50 °C for the first, 120 to 121 °C for the second.

First: C[C@@H]1CN(c2ccc(-c3[nH]nc4c3C(=O)c3c(NC(=O)NN5CCOCC5)cccc3-4)cc2)C[C@H](C)N1
Second: Fc1ccc(N2CCN(Cc3ccc4c(c3)NCCN4)CC2)cc1
The melting point of the first is higher: 237 °C for the first, 126 to 127 °C for the second.

Compared with `CCOC(=O)c1ccc(F)c(-c2cccc3cc(CBr)sc23)c1`, `CCOC(=O)c1ccc(NC(=O)CC2c3ccccc3Sc3ccccc32)cc1` is higher in melting point: 143 to 144 °C for the first, 184 to 186 °C for the second.

Compared with `O=C(O)c1ccc2nc3c(c(=O)n2c1)CCC3=Cc1ccccc1`, `Cc1ccc2nc(-c3ccc(Cl)cc3)c(CN3CCCC3=O)n2c1` is higher in melting point: 153 to 154 °C for the first, 186 to 188 °C for the second.

First: CCOC(=O)CS(=O)CCSc1cc(C(C)(C)C)c(O)c(C(C)(C)C)c1 (stereo not given)
Second: CCOC(=O)c1sc(NC(C)=O)c(C(=O)OCC)c1C
The melting point of the first is lower: 110 °C for the first, 130 to 131 °C for the second.

First: Cc1c(-c2ccncc2)[nH]c2c1C(=O)CC(C)(C)C2
Second: CC1(C)Cc2c(ccc3c2C(c2cccc(-c4ccc(C(N)=O)cc4)c2)=NCC3(C)C)O1
The melting point of the first is lower: 241 to 242 °C for the first, 284 to 296 °C for the second.

First: CC(C)(c1cc(Cl)ccc1O)c1cc(Cl)ccc1O
Second: Cc1ccnc(-c2nc(=O)c3ccc(Cl)cc3s2)c1
The melting point of the first is lower: 142 °C for the first, 246 to 247 °C for the second.

First: CC(=O)CCC1(C(N)=O)c2ccccc2-c2ccccc21
Second: O=C(O)Cc1ccccc1Oc1ccccc1
The melting point of the first is higher: 125 to 128 °C for the first, 82 to 85 °C for the second.

Compared with `COc1ccc(OC(=O)[C@H](C)NC(=O)OCc2ccccc2)cc1`, `COC(=O)c1ccc(Oc2ccc(N)cc2C(=O)OC)cc1` is higher in melting point: 128 to 129 °C for the first, 144 to 146 °C for the second.

First: Cc1cn(COCCI)c(=O)[nH]c1=O
Second: CCCCONc1ncn(-c2c(C)cccc2C)c(=O)n1
The melting point of the first is lower: 112 to 115 °C for the first, 144 to 145 °C for the second.

`Cc1cc(O)c([N+](=O)[O-])cc1C(=O)c1c(Cl)cccc1Cl` and `Nc1cc(Cl)cc(Cl)c1C(=O)NCc1cccc(Cl)c1` cannot be ordered by melting point: 170 °C for the first, 167 to 171 °C for the second.

First: Cc1cc(Cn2nc(C(F)(F)C(F)(F)F)nc2C(F)(F)F)ccc1N
Second: Cn1c(C(F)(F)F)cc(=O)n(-c2ccc(Cl)c(C=O)c2)c1=O
The melting point of the first is lower: 60 to 63 °C for the first, 151 to 153 °C for the second.

First: CNS(=O)(=O)c1csc(C(=O)OC)c1
Second: CCc1cccc(CNC[C@@H](O)[C@H](Cc2cc(F)cc(F)c2)NC(=O)c2ccc(CS(C)(=O)=O)s2)c1
The melting point of the first is higher: 142 °C for the first, 128 to 131 °C for the second.

First: COC1=CC(=O)c2c(O)c(CO)c(CC(C)O)c(O)c2C1=O (stereo not given)
Second: C=CCN1C(=O)C2CCc3c(ccc(OC)c3OC)C2C1=O (stereo not given)
The melting point of the first is higher: 206 to 212 °C for the first, 147 to 148 °C for the second.

Compared with `Cc1nc(-c2ccc(Cl)cc2)n(-c2ccc(S(C)(=O)=O)cc2)n1`, `CCCCOc1ccc(-c2ncc(C(=O)OCC)c(Cl)n2)cc1` is lower in melting point: 184 to 185 °C for the first, 79 °C for the second.

First: O=S(=O)(c1ccccc1)N1CCC(C(Nc2ccc(F)cc2)c2ccc(F)cc2)CC1 (stereo not given)
Second: O=c1c2cc(F)c(N3CCCC3)nc2n(-c2ccccc2F)c(=O)n1OCc1ccccc1
The melting point of the first is lower: 175 to 176 °C for the first, 221 to 222 °C for the second.

Compared with `O=C(NCc1ccccc1)NCC(C(=O)O)C(F)(F)F` (stereo not given), `NC(=O)C(O)(C(N)=O)c1ccccc1` is lower in melting point: 183 to 184 °C for the first, 159 °C for the second.

Compared with `Cc1cc2nc3ccccc3sc-2c(Cl)c1=O`, `Cc1nc2c(N)nc3ccccc3c2o1` is lower in melting point: 206 °C for the first, 195 to 197 °C for the second.

First: CC1CCc2cc(F)cc3c(=O)c(C(=O)NN)cn1c23 (stereo not given)
Second: CC(C)COC(=O)Nc1cc(F)c(C2=CCSCC2)c(F)c1
The melting point of the first is higher: 236 to 238 °C for the first, 136 to 137 °C for the second.

First: CN(C)CCCCCC=C(NC(=O)C1CC1(C)C)C(=O)O (stereo not given)
Second: CCC1(C)CCN(C(=O)CN(C(=O)CNC(=O)Nc2cccc(C)c2)c2ccccc2)CC1
The melting point of the first is lower: 101 to 112 °C for the first, 204 °C for the second.

First: CCCCc1c(/C=C/C(=O)Oc2ccc([N+](=O)[O-])cc2)cc(OC)c2ccc(OC)cc12
Second: COc1ccc(-c2ccc([N+](=O)[O-])cc2)cc1OC1CC2CCC1C2 (stereo not given)
The melting point of the first is higher: 144 to 146 °C for the first, 134 to 135 °C for the second.

Compared with `C=CC(c1ncc([N+](=O)[O-])n1C)N(C)C` (stereo not given), `CC(C)CNc1c([N+](=O)[O-])cnc2ccccc12` is higher in melting point: 110 to 113 °C for the first, 114 to 118 °C for the second.

First: O=C1OCC2Cc3cccc(F)c3OC12 (stereo not given)
Second: Cc1ccc(S(=O)(=O)OCC2COc3ccc([N+](=O)[O-])c(C=CC#N)c3O2)cc1 (stereo not given)
The melting point of the first is lower: 75.5 to 77.5 °C for the first, 117 to 118 °C for the second.

First: Oc1cnn(-c2ccc(Cl)cc2Cl)c1
Second: O=C1NC(=O)C(c2ccc(N=Cc3ccc(Cl)c(Cl)c3)cc2)S1 (stereo not given)
The melting point of the first is lower: 148 to 149 °C for the first, 216 to 218 °C for the second.

First: COc1ccc(C2(C=O)C=CC=CC2)cc1OCCCC1(c2noc3cc(F)ccc23)CCNCC1 (stereo not given)
Second: COC1(OCc2ccccc2)C=C2C(=CC1)CCN(CCO)C2C1(c2ccccc2Cl)CC1 (stereo not given)
The melting point of the first is higher: 140 to 141 °C for the first, 65 to 70 °C for the second.

First: CCOCc1nc2c(N)nc3cc(OCCCc4cccs4)ccc3c2n1CC(C)(C)NS(C)(=O)=O
Second: CCNc1cc(NS(=O)(=O)c2ccc(C(C)(C)C)cc2)nc(NCC)n1
The melting point of the first is lower: 202 to 203 °C for the first, 316 to 318 °C for the second.

First: CC(O)(C(=O)Nc1ccc(S(=O)(=O)c2ccccc2)cc1[N+](=O)[O-])C(F)(F)F (stereo not given)
Second: COC(=O)C1SC=CC1Sc1ccccc1 (stereo not given)
The melting point of the first is higher: 191 to 192 °C for the first, 43 to 45 °C for the second.

First: CCOc1ccc(C=O)c(F)c1F
Second: CCCOc1ccc(CO)cc1N
The melting point of the first is lower: 70 °C for the first, 94 to 95 °C for the second.

Compared with `O=C(Cc1ccc(OC2Cc3ccccc3C2)cc1)NC1(C(=O)O)Cc2ccc(-c3ccc(Cl)cc3)cc2C1` (stereo not given), `Cc1nc2c3c(c(C(=O)NCCO)cc2n1C)CCC1(Cc2ccccc2C1)N3` is lower in melting point: 233 to 234 °C for the first, 167 to 168 °C for the second.

First: O=C1C(=O)c2ccccc2C2=C1SCC1(CCN(C3CCCC3O)CC1)O2 (stereo not given)
Second: Cn1c(=O)c(C(=O)C2=C(O)CCCC2=O)nc2ccccc21
The melting point of the first is lower: 110 to 113 °C for the first, 191 to 192 °C for the second.

First: CN(C)c1ccc(NC(=S)NCC(C)(C)C)cc1
Second: Cc1c[nH]c(-c2ccc(OCC(O)CNC3CC3)cc2)n1 (stereo not given)
The melting point of the first is higher: 174 to 176 °C for the first, 150 to 154 °C for the second.

Compared with `O=C1CSCC(=O)C1C(=O)Nc1ccc(Cl)c(C(F)(F)F)c1`, `Cc1c(C(F)(F)F)nc[nH]c1=O` is higher in melting point: 108 to 110 °C for the first, 175 to 176 °C for the second.

First: CCc1noc(-c2cc3c(cn2)[nH]c2ccccc23)n1
Second: CCOC(=O)CNC(=O)c1cc2c(s1)-n1c(C)nnc1CN=C2c1ccccc1Cl
The melting point of the first is lower: 146 to 149 °C for the first, 251 to 252 °C for the second.

First: N#Cc1ccc2oc(CCc3cc4cc(C#N)ccc4o3)cc2c1
Second: C#Cc1ccc2cc(OC)ccc2c1
The melting point of the first is higher: 243 to 244 °C for the first, 111 to 112 °C for the second.

`C[C@@H](NC(=O)c1ccc(-c2ccccn2)s1)[C@](O)(Cn1cncn1)c1ccc(F)cc1F` showed a melting point of 212 to 213 °C.
